# Reference: patent US11389463B2, “Antiviral nucleoside reverse transcriptase inhibitor” (priority 2017, dated 2022)
# pEC50: −log10 of the molar value. Counter-ions that a name gives are not always drawn.
# What was measured:
# HIV-1 = assay: Detection of in vitro anti-HIV activity (HIV-1 infected MT-4 cells, CellTiter-glo); format: cell-based; settings: Human immunodeficiency virus 1, MT4, 120 h, 5 days, read-out: HIV activity and cytotoxicity data EC50
# Method: Compound treatment: the test compounds and the reference compounds were 2-fold diluted with DMSO and added to the cell culture plate. The test compounds and the reference compounds were tested at 8 concentrations in duplicate.
# [1] = Cytotoxicity assay in uninfected MT-4 cells (CellTiter-glo); format: cell-based; settings: human, read-out: HIV activity and cytotoxicity data CC50
# Method: The data was analyzed by GraphPad Prism software, and the curve was fitted and EC50 and CC50 values were calculated. EC50 refers to the effective concentration that inhibits 50% virus production, 50% virus infectivity, or 50% virus-induced cellular effects. CC50 refers to the inhibitory concentration that reduces the cell growth or viability of uninfected cells by 50%.
# Viral infection and cell treatment: HIV-1 and MT-4 cells were co-incubated at 37° C., in an incubator with 5% CO2 for 1 h. The infected cells were then seeded in a cell culture plate at a certain density. The final concentration of DMSO in the cell culture medium was 0.5%. The cells were incubated at 37° C., in an incubator with 5% CO2 for 5 days. The cells tested in the cytotoxicity assay were uninfected MT-4 cells, and other test conditions were with the same as that of the antiviral activity assay.
# The activity assay of the cell: the cell viability was tested by using cell viability assay reagent CellTiter-glo (Promega). The raw data was used for calculating the anti-HIV-1 activity and cytotoxicity of the Compounds.
# HBV = assay: Detection of anti-HBV activity in vitro (HepG2.2.15 cells, HBV DNA by quantitative PCR); format: cell-based; settings: Hepatitis B virus, HBV DNA in supernatant on the eighth day, read-out: HBV activity and cytotoxicity data EC50
# Method: Anti-cell viability assay: in vitro anti-hepatitis b virus activity of Example compounds was tested in HepG2.2.15 cells with TDF as a positive control compound. Cells were seeded into a 96-well plate on the first day; the compounds were added to treat the cells on the next day; and a new culture medium containing the compounds was replaced on the fifth day. On the eighth day, the supernatant was collected for DNA extraction. The content of HBV DNA was detected by quantitative PCR. Both test compound and TDF were subjected to a 3-fold serial dilution to get 8 concentration points in duplicate. The final concentration of DMSO in the culture medium was 0.5%. The formula for calculating the percentage of inhibition is as follows: Inhibition rate=(1−copy number of HBV in sample/copy number of HBV in DMSO control group)×100%
# [2] = Cytotoxicity experiments of the anti-HBV test (Cell-titer Blue); format: cell-based; settings: human, HepG2.2.15 cells, six days after treatment
# Method: Cytotoxicity experiments: the arrangement of compounds on plate and compound-treatment process were the same as that of […] activity. Six days after the cells were treated by compounds, the cell activity was tested. Cell-titer Blue reagent was added to each well, the cells were incubated at 37° C. for 3 hours, and fluorescence values were read (560Ex/590 Em). The data were analyzed and the relative cell viability was calculated:
# The percentage of cell viability was calculated using the following formula: % cell viability=(fluorescence reading of sample−fluorescence reading of culture control)/(fluorescence reading of DMSO control−fluorescence reading of culture control)×100.
# Finally, the CC50 value of the compounds were calculated by the GraphPad Prism software.
# [3] = Liver microsomal metabolism experiment, human liver microsomes; format: in vitro ADME; settings: pH 7.4, 1 μM compound, 0.5 mg/mL protein, NADPH
# Method: (§1) Microsomal experiments: human liver microsomes: 0.5 mg/mL, Xenotech; rat liver microsomes: 0.5 mg/mL, Xenotech; coenzyme (NADPH/NADH): 1 mM, Sigma Life Science; magnesium chloride: 5 mM, 100 mM phosphate buffer (pH 7.4).
# (§2) Preparation of stock solution: powder of Example compounds were precisely weighed and dissolved in DMSO to 5 mM.
# (§3) Preparation of phosphate buffer (100 mm, pH 7.4): 0.5M pre-formulated potassium dihydrogen phosphate (150 ml) and 0.5M potassium hydrogen phosphate (700 ml) were mixed well. The pH of the mixture was then adjusted to 7.4 with 0.5M potassium hydrogen phosphate solution. The resulting solution was 5-fold diluted with ultrapure water before use, and magnesium chloride was added to the solution, affording a phosphate buffer (100 mm), containing potassium phosphate (100 mM), magnesium chloride (3.3 mM), pH 7.4. […]
# (§4) Data analysis: The peak area of the corresponding compounds and internal standard was detected by LC-MS/MS system, and the peak area ratio of compounds to internal standard was calculated. The slope was measured by plotting the natural log of the percentage of the remaining amount of the compounds versus time, and t1/2 and CLint were calculated according to the following formula, where V/M is equal to 1/protein concentration.
# [4] = Liver microsomal metabolism experiment, rat liver microsomes; format: in vitro ADME; settings: SD, pH 7.4, 1 μM compound, 0.5 mg/mL protein, NADPH
# Method: as §1, §2, §3, §4
# [5] = relative to TDF; cited from earlier work
# immune cells = settings: relative to TDF; cited from earlier work
SMILES,pEC50 (HIV-1),CC50 at 5 days [1] [nM],pEC50 (HBV),CC50 at 6 days [2] [nM],microsomal CLint at 1 μM ([3]; read-out: Human liver microsome experiment CLint) [µL/min/mg],half-life at 1 μM ([3]; read-out: Human liver microsome experiment t1/2(min)) [min],microsomal CLint at 1 μM ([4]; read-out: Rat liver microsome experiment CLint) [µL/min/mg],half-life at 1 μM ([4]; read-out: Rat liver microsome experiment t1/2(min)) [min],"concentration of TFV in plasma metabolized by TAF, lower than that of TDF [5] [%]","concentration of TFV in immune cells metabolized by TAF, times higher than that of TDF (immune cells) [times]"
"CCCCCCCCCCCCCCCCS(=S)CCO[P@](=O)(CO[C@H](C)Cn1cnc2c(N)ncnc21)OCOC(=O)OC(C)C (single isomer, unassigned) [Compound T-3-2]",≥ 8.30,100 to 500,6.40 to 7.00,> 50000,71,19.5,54.4,25.5,–,–
"CCCCCCCCCCCCCCCCS(=S)CCO[P@@](=O)(CO[C@H](C)Cn1cnc2c(N)ncnc21)OCOC(=O)OC(C)C (single isomer, unassigned) [Compound T-3-1]",≥ 8.30,100 to 500,6.40 to 7.00,> 50000,–,–,–,–,–,–
"CC(C)OC(=O)[C@H](C)N[P@](=O)(CO[C@H](C)Cn1cnc2c(N)ncnc21)Oc1ccccc1 [TAF, Tenofovir Alafenamide Fumarate]",–,–,–,–,–,–,–,–,90,4
